From article PMC10952572, “Improved PIEZO1 agonism through 4‐benzoic acid modification of Yoda1” (British Journal of Pharmacology, 2023) come the findings set out here.

The target in assay [1] is T1, mPIEZO1 (Mus musculus, UniProt E2JF22).
T1 construct: expressed in transfected cells
Nature of the assay: Pre-treatment with analogue before Yoda1 stimulus, Ca2+ assay in mPIEZO1-TREx cells. In kind it is cell-based. The note with it: mPIEZO1-TREx, 10 μM compound 30 min pretreatment before 0.5 μM Yoda1.

In assay [2] the target is T1, mPIEZO1. Nature of the assay: Intracellular Ca2+ measurement (Fura-2) in mPIEZO1-TREx cells. In kind it is cell-based. To be noted: for Peak ΔCa2+i (ΔF340/380), median fold difference compared to Yoda1: 10 μM compound, mPIEZO1-TREx cells, paired with 10 μM Yoda1; for Ca2+ response (agonist effect): 10 μM, cells overexpressing mPIEZO1, compared with Yoda1. The source says: HEK T‐REx™ cells that constitutively overexpress murine PIEZO1 were generated as previously described (Blythe et al., [2019]). pcDNA3 mouse PIEZO1 (mPIEZO1) IRES green fluorescent protein (GFP), a gift from Ardem Patapoutian (Coste et al., [2010]), was used as a template to clone the mPIEZO1 coding sequence into pcDNA4/TO. Overlapping mPIEZO1 (forward primer 5′‐[…]‐3′ and reverse primer 5′‐[…]‐3′) and pcDNA4/TO (forward primer 5′‐[…]‐3′ and reverse primer 5′‐[…]‐3′) PCR products were assembled using Gibson Assembly (New England Biolabs). […] HEK T‐REx™ 293 cells were transfected with pcDNA4/TO‐mPIEZO1 using Lipofectamine 2000 (Invitrogen) and treated with 200 μg·ml^−1 zeocin to select stably transfected cells. Individual clones were isolated and analysed for expression using Yoda1 and intracellular Ca^2+ measurements. These cells are referred to as mPIEZO1‐TREx.
(§1) HEK 293‐TREx cells and their stably transfected derivatives or transiently transfected HEK 293 or HeLa cells were seeded at a density of 7.5 × 10^4 cells per well into poly‐D‐lysine‐coated 96‐well plates. The plates were either commercially pre‐coated with poly‐D‐lysine (Greiner Bio‐One #655946) or (Greiner Bio‐One #655090) were coated in‐house with 35 μl of a 10 μg·ml^−1 poly‐D‐lysine (Bio‐Techne, Cultrex # 3439‐100‐01) in sterile deionised water per well for at least 24 h and rinsed three times with 100 μl per well sterile D‐PBS before addition of cells. HUVECs were seeded into tissue culture‐treated 96‐well plates (Greiner Bio‐One #655090) at a density of either 2.5 × 10^4 cells 24 h before experimentation or 1.25 × 10^4 cells 48 h before experimentation. Cells were incubated with 2 μM Fura‐2‐AM (Molecular Probes™) in the presence of 0.01% (wt./vol.) pluronic F127 (Sigma‐Aldrich #P2443) in standard bath solution (SBS) for 1 h at 37°C. Cells were washed with SBS for 30 min at room temperature. Alternatively, if inhibitors were being tested, these were added at this time, immediately following a wash in SBS. (−)‐Englerin A (Akbulut et al., [2015]) was used in SBS containing 0.01% pluronic acid as a dispersing agent to minimise aggregation of compound. Unless otherwise stated, the final concentration of DMSO was 0.2% (vol./vol). Working 2000× stock solutions of test compounds were freshly made in DMSO and diluted 1000‐fold in SBS during the 30 min SBS wash/inhibitor pre‐incubation period to obtain 2× solutions for injection. When testing the highest concentration of Yoda1, KC159 and KC289 (30 μM), the final DMSO concentration was 0.6% (vol./vol.). Measurements were made at room temperature on a 96‐well fluorescence plate reader (FlexStation 3, Molecular Devices, Sunnyvale, CA, USA) controlled by SoftMax Pro software v7.0.3. Recipient wells containing 80 μl SBS/0.2% (vol./vol.) DMSO vehicle or inhibitor compound received 80 μl 2× compound at an injection rate of 1 μl·s^−1, and the pipette introduced liquids from a height setting of 70 μl. No trituration was performed. For recordings using Fura‐2, the change in intracellular Ca was indicated as the ratio of Fura‐2 emission (510 nm) intensities at 340 and 380 nm excitation. Photomultipliers were set to medium sensitivity. SBS contained 130 mM NaCl, 5 mM KCl, 8 mM D‐glucose, 10 mM HEPES, 1.2 mM MgCl2 and 1.5 mM CaCl2, and the pH was adjusted to 7.4 with NaOH. The solution was filtered through a 0.2 μm bottle‐top filter prior to use and handled aseptically thereafter.
For intracellular Ca^2+ (Ca^2+i) measurements, technical intra‐experiment replicates were used to improve confidence in the data. Analysis of individual experiments was performed to obtain mean ± SEM values. For collated analysis of independent experiments, where normal distributions were not evidenced by Shapiro–Wilk normality tests, non‐parametric distributions were assumed, and therefore, median values were used. […]

Assay [3] addresses T2, hPIEZO1 (Homo sapiens, UniProt Q92508).
T2 construct: expressed in transfected cells
The assay can be described thus: Intracellular Ca2+ measurement (Fura-2) in hPIEZO1-TREx cells. To be noted: 10 μM compound, hPIEZO1-TREx cells, paired with 10 μM Yoda1. Format: cell-based.
Text: HEK T‐REx™ 293 cells (Thermo Fisher Cat #R71007, RRID:CVCL_D585) that overexpress hPIEZO1 upon induction with tetracycline were generated as previously described (Rode et al., [2017]). PIEZO1‐GFP was used as a PCR template to clone hPIEZO1 coding sequence into pcDNA™4/TO between HindIII and EcoRI restriction sites. PIEZO1 was amplified as two fragments using the following primers: (HindIII‐PIEZO1‐Fw: […] and BamHI‐Int.PIEZO1‐Rv: […]) and (BamHI‐Int. PIEZO1‐Fw: […] and EcoRI‐PIEZO1‐Rv: […]). The two fragments were fused using BamHI restriction site, resulting in the full‐length PIEZO1 coding sequence with the c4182a silent mutation. HEK T‐REx™ 293 cells (Invitrogen) were transfected with pcDNA4/TO‐PIEZO1 using Lipofectamine 2000 (Thermo Fisher Scientific). Subsequently, cells were treated with 10 μg·ml^−1 blasticidin and 200 μg·ml^−1 zeocin (InvivoGen) to select stably transfected cells. Single‐cell clones were isolated and analysed individually. Expression was induced by treating the cells for 24 h with 10 ng·ml^−1 tetracycline and analysed by quantitative RT‐PCR and Western blot. These cells are referred to as hPIEZO1‐TREx.
as §1
For intracellular Ca^2+ (Ca^2+i) measurements, technical intra‐experiment replicates were used to improve confidence in the data. Analysis of individual experiments was performed to obtain mean ± SEM values. […]

For assay [4], the target named is T2, hPIEZO1. Nature of the assay: Pre-treatment with analogue before Yoda1 stimulus, Ca2+ assay in hPIEZO1-TREx cells. To be noted: for 2 μM Yoda1-evoked peak ΔCa2+i (ΔF340/380), median fold difference compared to DMSO pretreatment: hPIEZO1-TREx, 10 μM compound 30 min pretreatment before 2 μM Yoda1; for Inhibition of the action of Yoda1: hPIEZO1 channels, 10 μM for 30 min prior to Yoda1. Format: cell-based. The protocol:
as §1
In view of the effect of Dooku1 described above, we tested if there are inhibitory actions of the new Yoda1 analogues by pre‐treating cells at 10 μM for 30 min prior to adding 2 μM Yoda1 (Figures 9 and S9, SI 1). All except KC157 and KC161 inhibited the action of Yoda1 on hPIEZO1 channels (Figures 9a and S9, SI 1). […] KC159 and KC289 were agonists, and so they may inhibit the effect of Yoda1 simply by pre‐activating the channels. KC158, KC161 and KC162 are also agonists of mPIEZO1 channels (Figure 3). […] Only the 2‐benzoic acid analogue (KC157) lacks agonist or antagonist properties.

Assay [5] concerns mouse portal vein. Nature of the assay: Wire myography, relaxation of phenylephrine pre-constricted vein. The protocol: Mice were anaesthetised with isoflurane (5% induction and 1.5% maintenance) in 95% O2 according to Schedule 1 procedure approved by the UK Home Office. The portal vein was quickly dissected and placed in Krebs solution. The Krebs PV solution consisted of 118 mM NaCl, 4.7 mM KCl, 2.5 mM CaCl2, 1.2 mM KH2PO4, 1.2 mM MgSO4·7H2O, 25.2 mM NaHCO3 and 11.1 mM glucose. By means of a dissecting microscope, adhering perivascular tissue was carefully removed and the vein was cut into 1 mm segments.
Vein segments were mounted onto two thin stainless steel wires in an isometric myograph (Multi Wire Myograph System 620M from Danish Myograph Technology [DMT]), for which the force transducer was calibrated once per month according to the manufacturer's instructions. The recording chamber was filled with gassed Krebs solution (95% O2/5% CO2, pH 7.4). The segments were then stretched to a normalised internal diameter according to the manufacturer's instructions. The mounted rings were kept in a 5 ml chamber containing Krebs solution at 37°C and continuously bubbled with a gas mixture of 95% O2 and 5% CO2 (pH 7.4). After an equilibration period of 60 min, the contractile function of the vessel was tested by replacing the Krebs solution by 60 mM K^+ solution. Following washout, the vein was contracted once with 10 μM phenylephrine and then Yoda1, KC159 or KC289 was applied with the concentrations of 0.1 to 10 μM. The NOS inhibitor, L‐NAME, (100 μM), was pre‐incubated for 20 min before the PIEZO1 modulator.
Because the anticipated effect of test compounds was to cause vessel relaxation, phenylephrine was applied to induce tension and the maximum value of this tension was defined as 0% relaxation (no relaxation). The value of tension immediately prior to application of phenylephrine was defined as 100% relaxation. Data are normalised to these values because, otherwise, the intrinsic variability in the absolute amount of tension induced by phenylephrine obscured exploration of the relaxant effect of compounds.
OriginPro 2020 was used for the analysis of myography data. Myography traces show readings taken every 0.5 or 1 s and were smoothed with the Savitzky–Golay filter set to 70 points. To compare the agonistic activity of Yoda1 analogues, basal vessel tension prior to compound injection was subtracted. Maximal tension in the presence of PE alone was used to define 0% relaxation. The tension value prior to PE application was defined as 100% relaxation. Following the addition of test compounds, tension readings were taken at the last time point of the treatments and expressed as percentage relaxation.

T1 sequence (E2JF22 whole entry): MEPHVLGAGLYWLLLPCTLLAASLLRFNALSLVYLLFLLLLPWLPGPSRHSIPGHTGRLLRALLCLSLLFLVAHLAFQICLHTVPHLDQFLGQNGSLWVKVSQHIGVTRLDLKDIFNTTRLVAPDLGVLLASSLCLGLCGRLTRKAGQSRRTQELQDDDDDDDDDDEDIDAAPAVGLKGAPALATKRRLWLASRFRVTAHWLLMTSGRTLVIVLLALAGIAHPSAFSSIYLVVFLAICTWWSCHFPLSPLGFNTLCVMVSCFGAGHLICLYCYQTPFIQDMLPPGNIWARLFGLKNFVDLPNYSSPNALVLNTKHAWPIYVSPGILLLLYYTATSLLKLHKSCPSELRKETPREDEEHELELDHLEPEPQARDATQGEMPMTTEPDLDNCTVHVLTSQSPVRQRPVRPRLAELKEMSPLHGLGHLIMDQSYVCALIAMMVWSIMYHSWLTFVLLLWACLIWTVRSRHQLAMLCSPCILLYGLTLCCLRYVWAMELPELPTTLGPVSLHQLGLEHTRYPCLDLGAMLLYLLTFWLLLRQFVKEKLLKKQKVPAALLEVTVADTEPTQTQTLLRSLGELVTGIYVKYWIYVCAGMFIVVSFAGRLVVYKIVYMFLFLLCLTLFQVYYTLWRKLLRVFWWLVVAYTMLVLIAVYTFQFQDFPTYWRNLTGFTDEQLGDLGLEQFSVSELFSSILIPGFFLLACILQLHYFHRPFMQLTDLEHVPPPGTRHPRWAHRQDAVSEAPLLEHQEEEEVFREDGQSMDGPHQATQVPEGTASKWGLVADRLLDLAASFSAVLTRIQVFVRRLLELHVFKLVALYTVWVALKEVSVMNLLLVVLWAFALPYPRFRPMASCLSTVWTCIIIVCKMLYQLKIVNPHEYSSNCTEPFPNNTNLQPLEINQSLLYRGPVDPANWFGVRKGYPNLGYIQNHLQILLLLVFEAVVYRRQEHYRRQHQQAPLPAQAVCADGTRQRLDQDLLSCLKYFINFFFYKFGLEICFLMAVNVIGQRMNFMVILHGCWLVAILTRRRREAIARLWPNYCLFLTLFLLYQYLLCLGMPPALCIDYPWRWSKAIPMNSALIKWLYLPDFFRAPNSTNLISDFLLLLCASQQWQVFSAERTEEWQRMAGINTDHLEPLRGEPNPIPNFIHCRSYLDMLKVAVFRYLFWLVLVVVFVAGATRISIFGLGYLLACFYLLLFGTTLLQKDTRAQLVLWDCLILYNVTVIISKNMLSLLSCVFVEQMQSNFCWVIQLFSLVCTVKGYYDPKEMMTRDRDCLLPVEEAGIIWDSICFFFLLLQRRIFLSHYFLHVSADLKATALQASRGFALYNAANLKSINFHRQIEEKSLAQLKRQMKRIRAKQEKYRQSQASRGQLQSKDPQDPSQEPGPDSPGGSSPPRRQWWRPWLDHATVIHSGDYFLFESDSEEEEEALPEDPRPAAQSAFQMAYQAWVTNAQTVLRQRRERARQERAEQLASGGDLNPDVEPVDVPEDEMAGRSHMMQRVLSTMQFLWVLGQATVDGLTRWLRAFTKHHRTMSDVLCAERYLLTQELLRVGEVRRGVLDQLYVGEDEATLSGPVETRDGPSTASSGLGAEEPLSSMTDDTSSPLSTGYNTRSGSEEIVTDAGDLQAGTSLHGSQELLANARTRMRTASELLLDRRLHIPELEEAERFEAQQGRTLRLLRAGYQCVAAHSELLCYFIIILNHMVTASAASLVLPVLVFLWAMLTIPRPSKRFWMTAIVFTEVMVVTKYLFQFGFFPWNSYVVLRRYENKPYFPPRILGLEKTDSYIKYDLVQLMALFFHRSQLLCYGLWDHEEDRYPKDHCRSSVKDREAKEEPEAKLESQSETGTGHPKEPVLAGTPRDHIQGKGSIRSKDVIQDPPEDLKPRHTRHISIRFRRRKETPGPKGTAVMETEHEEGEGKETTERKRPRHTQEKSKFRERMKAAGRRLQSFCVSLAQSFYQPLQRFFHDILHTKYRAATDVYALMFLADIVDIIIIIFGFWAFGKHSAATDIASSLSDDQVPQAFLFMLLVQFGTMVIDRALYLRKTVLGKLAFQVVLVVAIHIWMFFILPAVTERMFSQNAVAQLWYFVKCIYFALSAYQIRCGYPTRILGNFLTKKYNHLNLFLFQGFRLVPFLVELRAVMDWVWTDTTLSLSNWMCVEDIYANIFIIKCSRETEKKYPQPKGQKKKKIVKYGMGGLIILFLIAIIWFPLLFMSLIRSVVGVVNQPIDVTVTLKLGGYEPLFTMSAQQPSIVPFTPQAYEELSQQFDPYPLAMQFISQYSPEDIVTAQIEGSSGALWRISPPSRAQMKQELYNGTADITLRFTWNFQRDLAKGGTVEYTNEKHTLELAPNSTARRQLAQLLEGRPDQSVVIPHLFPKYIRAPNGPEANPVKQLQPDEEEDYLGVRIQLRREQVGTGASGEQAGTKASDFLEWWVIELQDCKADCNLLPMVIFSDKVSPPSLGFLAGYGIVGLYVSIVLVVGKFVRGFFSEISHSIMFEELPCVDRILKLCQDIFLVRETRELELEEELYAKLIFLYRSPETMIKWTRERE
T2 sequence (Q92508 whole entry): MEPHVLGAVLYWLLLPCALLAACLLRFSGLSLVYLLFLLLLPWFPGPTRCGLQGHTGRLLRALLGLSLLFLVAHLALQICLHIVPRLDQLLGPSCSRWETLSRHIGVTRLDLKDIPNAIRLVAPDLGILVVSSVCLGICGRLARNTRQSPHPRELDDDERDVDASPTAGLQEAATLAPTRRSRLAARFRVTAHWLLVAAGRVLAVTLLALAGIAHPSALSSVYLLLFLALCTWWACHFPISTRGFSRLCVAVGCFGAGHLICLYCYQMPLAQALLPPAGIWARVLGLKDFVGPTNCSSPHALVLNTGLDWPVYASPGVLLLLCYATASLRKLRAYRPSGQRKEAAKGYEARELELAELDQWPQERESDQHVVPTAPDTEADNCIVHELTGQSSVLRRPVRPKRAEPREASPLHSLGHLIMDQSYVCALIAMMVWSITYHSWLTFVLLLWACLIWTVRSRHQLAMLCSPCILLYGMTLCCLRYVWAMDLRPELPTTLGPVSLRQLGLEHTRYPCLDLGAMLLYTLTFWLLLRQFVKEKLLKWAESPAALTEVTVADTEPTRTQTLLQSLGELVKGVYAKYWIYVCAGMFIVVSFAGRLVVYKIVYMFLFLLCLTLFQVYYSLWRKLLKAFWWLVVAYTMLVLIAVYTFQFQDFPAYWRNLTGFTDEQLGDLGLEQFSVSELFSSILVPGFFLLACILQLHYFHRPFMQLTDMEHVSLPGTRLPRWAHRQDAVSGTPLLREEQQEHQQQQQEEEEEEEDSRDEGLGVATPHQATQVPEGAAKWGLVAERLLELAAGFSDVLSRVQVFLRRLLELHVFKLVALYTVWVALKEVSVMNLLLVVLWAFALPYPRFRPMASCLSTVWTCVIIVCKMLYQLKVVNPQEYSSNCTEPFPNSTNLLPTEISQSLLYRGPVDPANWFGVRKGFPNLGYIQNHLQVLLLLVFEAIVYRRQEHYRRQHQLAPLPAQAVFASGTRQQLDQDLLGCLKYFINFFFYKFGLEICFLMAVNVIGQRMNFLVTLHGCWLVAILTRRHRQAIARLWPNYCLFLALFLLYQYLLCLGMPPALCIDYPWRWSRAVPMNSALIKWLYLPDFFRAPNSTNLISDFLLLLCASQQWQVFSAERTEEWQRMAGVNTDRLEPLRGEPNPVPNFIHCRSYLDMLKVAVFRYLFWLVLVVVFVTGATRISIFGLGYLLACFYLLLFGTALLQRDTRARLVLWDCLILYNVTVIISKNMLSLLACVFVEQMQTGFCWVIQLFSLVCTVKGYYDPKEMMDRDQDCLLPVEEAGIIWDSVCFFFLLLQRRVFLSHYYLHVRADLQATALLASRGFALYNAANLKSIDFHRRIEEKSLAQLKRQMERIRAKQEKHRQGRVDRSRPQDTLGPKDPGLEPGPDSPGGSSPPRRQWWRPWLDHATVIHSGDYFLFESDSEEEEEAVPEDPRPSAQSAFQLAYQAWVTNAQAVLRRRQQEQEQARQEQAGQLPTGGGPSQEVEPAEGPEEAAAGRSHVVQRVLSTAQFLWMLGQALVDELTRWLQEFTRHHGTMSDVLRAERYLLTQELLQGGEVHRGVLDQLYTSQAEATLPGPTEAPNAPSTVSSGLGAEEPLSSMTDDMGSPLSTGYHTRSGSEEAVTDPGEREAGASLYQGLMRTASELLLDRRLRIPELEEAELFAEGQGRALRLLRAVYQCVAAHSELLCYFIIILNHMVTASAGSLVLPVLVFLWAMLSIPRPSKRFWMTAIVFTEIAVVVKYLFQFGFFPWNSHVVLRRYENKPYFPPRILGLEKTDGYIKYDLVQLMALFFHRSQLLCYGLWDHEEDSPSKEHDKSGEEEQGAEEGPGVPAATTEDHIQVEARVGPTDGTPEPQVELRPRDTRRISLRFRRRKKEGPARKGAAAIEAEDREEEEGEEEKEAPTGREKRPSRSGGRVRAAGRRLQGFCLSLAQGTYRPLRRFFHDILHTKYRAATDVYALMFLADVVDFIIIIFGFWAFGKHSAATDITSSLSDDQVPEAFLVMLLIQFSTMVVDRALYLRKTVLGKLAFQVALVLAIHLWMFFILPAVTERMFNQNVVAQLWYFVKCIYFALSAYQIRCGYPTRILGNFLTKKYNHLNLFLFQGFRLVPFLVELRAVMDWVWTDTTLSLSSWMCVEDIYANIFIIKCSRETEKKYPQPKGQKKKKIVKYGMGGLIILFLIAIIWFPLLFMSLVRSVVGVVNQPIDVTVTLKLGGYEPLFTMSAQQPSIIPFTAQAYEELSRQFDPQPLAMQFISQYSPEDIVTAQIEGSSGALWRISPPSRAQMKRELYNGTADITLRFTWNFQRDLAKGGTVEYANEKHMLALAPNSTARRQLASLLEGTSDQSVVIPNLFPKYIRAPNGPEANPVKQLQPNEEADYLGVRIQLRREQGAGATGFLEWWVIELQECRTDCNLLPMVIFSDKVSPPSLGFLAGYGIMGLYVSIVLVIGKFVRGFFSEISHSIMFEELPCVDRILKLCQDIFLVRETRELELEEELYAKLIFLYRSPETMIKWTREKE

As to `NC(=O)c1ccc(-c2nnc(SCc3c(Cl)cccc3Cl)s2)cc1` [KC161], the “0.5 μM Yoda1-evoked peak ΔCa2+i (ΔF340/380), median fold difference compared to DMSO pretreatment” value in assay [1] is recorded as −6.5 fold. In assay [2], the “Peak ΔCa2+i (ΔF340/380), median fold difference compared to Yoda1” value is −3.8 fold and the “Ca2+ response (agonist effect)” value is “agonist effects”. Further, the “Peak ΔCa2+i (ΔF340/380), median fold difference compared to Yoda1” value in assay [3] is −23.6 fold.
Take `NC(=O)c1cccc(-c2nnc(SCc3c(Cl)cccc3Cl)s2)c1` [KC162]: in assay [1], the “0.5 μM Yoda1-evoked peak ΔCa2+i (ΔF340/380), median fold difference compared to DMSO pretreatment” value was −8.2 fold. In assay [4], the “2 μM Yoda1-evoked peak ΔCa2+i (ΔF340/380), median fold difference compared to DMSO pretreatment” value is on record as −2.5 fold and the “Inhibition of the action of Yoda1” value is given as “inhibit the Yoda1 response”. Also, in assay [2], the “Peak ΔCa2+i (ΔF340/380), median fold difference compared to Yoda1” value is on record as −3.7 fold and the “Ca2+ response (agonist effect)” value is “agonist effects”. In assay [3], the “Peak ΔCa2+i (ΔF340/380), median fold difference compared to Yoda1” value is −3.7 fold.
On to `O=C(O)c1cccc(-c2nnc(SCc3c(Cl)cccc3Cl)s2)c1` [KC158], for which the “0.5 μM Yoda1-evoked peak ΔCa2+i (ΔF340/380), median fold difference compared to DMSO pretreatment” value in assay [1] is −4.9 fold. Further, in assay [4], the “2 μM Yoda1-evoked peak ΔCa2+i (ΔF340/380), median fold difference compared to DMSO pretreatment” value is −3.8 fold and the “Inhibition of the action of Yoda1” value is listed as “inhibit the Yoda1 response”. Moreover, in assay [2], the “Peak ΔCa2+i (ΔF340/380), median fold difference compared to Yoda1” value is listed as −2.0 fold and the “Ca2+ response (agonist effect)” value is on record as “agonist effects”. In addition, the “Peak ΔCa2+i (ΔF340/380), median fold difference compared to Yoda1” value in assay [3] is −11.7 fold.
As for `Clc1cccc(Cl)c1CSc1nnc(-c2ccc[nH]2)o1` [Dooku1, reference compound], the “Effect on responses to phenylephrine” value in assay [5] (10 μM Dooku1) is “consistently inhibited responses to phenylephrine”. In addition, the “Effect of pre-incubation on relaxations evoked by PIEZO1 agonists” value in assay [5] (10 μM Dooku1 pre-incubation, 30 min) was “reduces relaxations evoked by KC159 and KC289”.
